# Laboratory results published in ChEMBL document CHEMBL1201862, “PubChem BioAssay data set” (2004).
# Activity calls are given as the source filed them.
# What was measured:
# HEK293 = test: EBV LMP1 TES2 canonical NF-kB signalling blockers – cell-based, HEK293, luciferase, cherry-pick, dose response (AID 588343); assay type: functional; conditions: Homo sapiens
# [1] = A549 cell cytotoxicity, dose response, cytotoxicity control, plate reader, cherry-pick, antagonist series (AID 743412); assay type: functional, cell-based
# [2] = blockers of bursicon-stimulated LGR2 cAMP reporter – cell-based, HEK293, CRE-luciferase reporter, cherry pick, set 2, dose response (AID 743343); assay type: functional;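 also: transfected cells were stimulated with diluted bursicon conditioned medium after compound addition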
# [3] = blockade of melanocortin 4 receptor signaling – cell-based, plate reader, cherry pick, counter-screen for LGR2 antagonist project, dose response (AID 743444); assay type: functional;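 also: transfected HEK 293 cells stimulated with alpha-MSH peptide; potency of inhibitors of the alpha-MSH evoked signal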
# Beta-galactosidase = Beta-galactosidase (Escherichia coli, UniProt Q8VNN2); test: Dose response counterscreen for EBI2 assay utilizing the enzyme, b-galactosidase.; assay type: functional
# [4] = target: T1, Replicative DNA helicase DnaB (Mycobacterium tuberculosis, UniProt P9WMR3); test: DnaB intein splicing inhibitors, dose response, biochemical, cell-free fluorescence (AID 449749); assay type: functional
# T1 sequence (P9WMR3 whole entry): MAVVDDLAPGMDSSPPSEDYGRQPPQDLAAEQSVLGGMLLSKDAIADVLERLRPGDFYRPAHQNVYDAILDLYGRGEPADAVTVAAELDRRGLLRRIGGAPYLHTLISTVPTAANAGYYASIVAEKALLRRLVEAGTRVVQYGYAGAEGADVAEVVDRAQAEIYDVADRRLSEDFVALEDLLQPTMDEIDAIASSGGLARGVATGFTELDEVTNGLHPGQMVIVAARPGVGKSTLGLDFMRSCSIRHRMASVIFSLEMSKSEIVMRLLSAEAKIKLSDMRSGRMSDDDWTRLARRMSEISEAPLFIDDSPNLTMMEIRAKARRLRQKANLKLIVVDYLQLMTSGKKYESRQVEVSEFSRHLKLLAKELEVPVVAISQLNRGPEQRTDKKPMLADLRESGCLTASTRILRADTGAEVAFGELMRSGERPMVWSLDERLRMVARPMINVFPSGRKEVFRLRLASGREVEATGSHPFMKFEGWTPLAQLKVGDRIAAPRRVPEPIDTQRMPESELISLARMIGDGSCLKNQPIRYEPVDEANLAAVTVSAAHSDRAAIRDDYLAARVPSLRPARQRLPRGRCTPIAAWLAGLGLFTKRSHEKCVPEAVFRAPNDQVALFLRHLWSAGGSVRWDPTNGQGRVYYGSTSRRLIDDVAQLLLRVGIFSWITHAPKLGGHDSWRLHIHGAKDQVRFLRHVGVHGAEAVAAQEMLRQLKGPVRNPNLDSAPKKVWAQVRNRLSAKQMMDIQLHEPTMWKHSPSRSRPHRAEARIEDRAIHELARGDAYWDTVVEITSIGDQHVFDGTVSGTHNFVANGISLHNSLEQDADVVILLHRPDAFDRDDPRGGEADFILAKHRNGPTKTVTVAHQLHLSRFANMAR
# Protein RecA = target: T2, Protein RecA (Mycobacterium tuberculosis, UniProt P9WHJ3); test: Fluorescence Cell-Free Homogeneous Dose Retest to Identify Inhibitors of RecA-Intein Splicing Activity. [Related pubchem assays (depositor defined):AID2097, AID2223, AID489010, AID492950]; assay type: functional
# T2 sequence (P9WHJ3 whole entry): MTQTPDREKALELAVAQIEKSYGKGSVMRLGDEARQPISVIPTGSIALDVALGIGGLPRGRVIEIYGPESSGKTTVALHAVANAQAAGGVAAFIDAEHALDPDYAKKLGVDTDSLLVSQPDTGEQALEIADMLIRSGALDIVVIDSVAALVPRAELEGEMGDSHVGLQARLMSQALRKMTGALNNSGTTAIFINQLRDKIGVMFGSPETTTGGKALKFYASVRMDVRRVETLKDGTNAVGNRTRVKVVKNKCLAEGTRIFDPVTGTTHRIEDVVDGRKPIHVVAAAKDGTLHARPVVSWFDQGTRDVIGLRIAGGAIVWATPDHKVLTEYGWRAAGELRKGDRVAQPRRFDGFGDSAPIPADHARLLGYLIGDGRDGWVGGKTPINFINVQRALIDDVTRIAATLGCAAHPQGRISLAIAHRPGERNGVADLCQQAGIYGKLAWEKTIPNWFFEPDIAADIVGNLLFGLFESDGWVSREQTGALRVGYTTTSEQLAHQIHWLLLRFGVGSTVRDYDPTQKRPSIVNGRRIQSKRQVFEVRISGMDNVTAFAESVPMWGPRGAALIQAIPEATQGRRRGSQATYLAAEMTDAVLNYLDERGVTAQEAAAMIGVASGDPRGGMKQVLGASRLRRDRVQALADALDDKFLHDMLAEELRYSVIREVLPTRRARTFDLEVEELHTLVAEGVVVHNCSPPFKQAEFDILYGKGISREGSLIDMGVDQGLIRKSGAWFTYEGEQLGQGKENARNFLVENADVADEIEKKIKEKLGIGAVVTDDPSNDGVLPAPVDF
# [5] = target: T3, Sentrin-specific protease 8 (Homo sapiens, UniProt Q96LD8); assay type: functional
# T3 sequence (Q96LD8 whole entry): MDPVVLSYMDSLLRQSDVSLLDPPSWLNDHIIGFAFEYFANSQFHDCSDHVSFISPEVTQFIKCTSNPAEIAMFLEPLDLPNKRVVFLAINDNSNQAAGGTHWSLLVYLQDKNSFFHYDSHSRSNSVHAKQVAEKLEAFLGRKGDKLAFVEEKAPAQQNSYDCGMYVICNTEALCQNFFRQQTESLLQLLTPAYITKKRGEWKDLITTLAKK
# [6] = target: T3, Sentrin-specific protease 8; assay type: functional; remark: listed apart in the source
# [7] = target: T4, Histone-lysine N-methyltransferase NSD2 (Homo sapiens, UniProt O96028); assay type: biochemical
# T4 sequence (O96028 whole entry): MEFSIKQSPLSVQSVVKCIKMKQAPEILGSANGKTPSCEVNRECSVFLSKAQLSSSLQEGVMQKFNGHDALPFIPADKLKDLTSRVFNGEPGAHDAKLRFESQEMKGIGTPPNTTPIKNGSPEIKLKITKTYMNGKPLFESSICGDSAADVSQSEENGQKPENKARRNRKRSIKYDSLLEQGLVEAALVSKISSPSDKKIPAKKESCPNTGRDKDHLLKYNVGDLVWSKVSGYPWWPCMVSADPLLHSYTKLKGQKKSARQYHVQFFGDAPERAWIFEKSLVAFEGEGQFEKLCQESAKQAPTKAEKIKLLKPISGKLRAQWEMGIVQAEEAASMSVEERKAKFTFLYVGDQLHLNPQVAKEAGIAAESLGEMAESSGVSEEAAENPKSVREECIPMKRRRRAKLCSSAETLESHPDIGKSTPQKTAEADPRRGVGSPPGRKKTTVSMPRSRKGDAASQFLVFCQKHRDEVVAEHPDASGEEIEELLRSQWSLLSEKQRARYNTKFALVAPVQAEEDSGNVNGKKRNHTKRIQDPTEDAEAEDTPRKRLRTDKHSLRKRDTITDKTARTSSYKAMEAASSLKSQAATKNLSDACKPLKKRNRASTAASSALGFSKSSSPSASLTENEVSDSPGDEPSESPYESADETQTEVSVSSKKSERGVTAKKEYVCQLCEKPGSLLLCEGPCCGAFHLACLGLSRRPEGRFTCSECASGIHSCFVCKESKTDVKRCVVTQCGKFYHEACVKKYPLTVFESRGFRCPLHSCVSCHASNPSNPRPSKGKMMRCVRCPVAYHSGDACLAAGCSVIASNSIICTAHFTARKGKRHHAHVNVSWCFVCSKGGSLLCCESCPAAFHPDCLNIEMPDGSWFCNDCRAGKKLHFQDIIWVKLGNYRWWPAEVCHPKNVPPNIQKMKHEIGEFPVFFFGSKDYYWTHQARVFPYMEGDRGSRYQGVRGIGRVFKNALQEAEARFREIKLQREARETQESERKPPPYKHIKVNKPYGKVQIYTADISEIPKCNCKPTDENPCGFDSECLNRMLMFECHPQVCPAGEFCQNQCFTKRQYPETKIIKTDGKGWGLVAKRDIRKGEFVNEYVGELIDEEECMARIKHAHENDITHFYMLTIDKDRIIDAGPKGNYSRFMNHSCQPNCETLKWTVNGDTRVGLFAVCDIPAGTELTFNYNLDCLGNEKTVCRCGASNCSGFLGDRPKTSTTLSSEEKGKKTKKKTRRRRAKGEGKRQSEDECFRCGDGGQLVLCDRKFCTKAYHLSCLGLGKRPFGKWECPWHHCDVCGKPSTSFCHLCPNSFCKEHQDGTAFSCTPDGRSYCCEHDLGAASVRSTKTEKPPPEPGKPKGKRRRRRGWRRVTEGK
# [8] = luciferase reporter signal suppression in cells – H4 neuroglioma cells, luminescence, dose response (AID 1990); assay type: functional, cell-based
# BJ [9] = test: BJ-TERT fibroblast viability loss – cell-based, RAS-independent, luminescence, dose response (AID 1933); assay type: functional; conditions: Homo sapiens
# [10] = Luminescence Cell-Based Dose Response HTS to Identify Inhibitors of 5'UTR Stem-Loop Driven Prion Protein mRNA Translation in H4 Neuroglioblastoma Cells. [Related pubchem assays: 1827 (Project Summary), 1813 (Primary HTS)]; assay type: functional
# [11] = alpha-synuclein stem-loop luciferase translation blockers – H4 neuroglioma cells, luminescence, confirmation (AID 1988); assay type: functional, cell-based
# BJ [12] = test: cells; assay type: functional, cell-based; conditions: Homo sapiens
# BJ [13] = test: BJ-TERT-LT-ST fibroblast viability loss – cell-based, RAS-independent, luminescence, dose response (AID 1935); assay type: functional; conditions: Homo sapiens;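 also: BJ fibroblasts immortalized with TERT plus LT and ST oncogenes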
# [14] = DRD fibroblast viability loss – cell-based, non-viral oncogenic, luminescence, dose response (AID 1934); assay type: functional; conditions: Homo sapiens
# Chain of Beta-galactosidase (Q8VNN2 whole entry): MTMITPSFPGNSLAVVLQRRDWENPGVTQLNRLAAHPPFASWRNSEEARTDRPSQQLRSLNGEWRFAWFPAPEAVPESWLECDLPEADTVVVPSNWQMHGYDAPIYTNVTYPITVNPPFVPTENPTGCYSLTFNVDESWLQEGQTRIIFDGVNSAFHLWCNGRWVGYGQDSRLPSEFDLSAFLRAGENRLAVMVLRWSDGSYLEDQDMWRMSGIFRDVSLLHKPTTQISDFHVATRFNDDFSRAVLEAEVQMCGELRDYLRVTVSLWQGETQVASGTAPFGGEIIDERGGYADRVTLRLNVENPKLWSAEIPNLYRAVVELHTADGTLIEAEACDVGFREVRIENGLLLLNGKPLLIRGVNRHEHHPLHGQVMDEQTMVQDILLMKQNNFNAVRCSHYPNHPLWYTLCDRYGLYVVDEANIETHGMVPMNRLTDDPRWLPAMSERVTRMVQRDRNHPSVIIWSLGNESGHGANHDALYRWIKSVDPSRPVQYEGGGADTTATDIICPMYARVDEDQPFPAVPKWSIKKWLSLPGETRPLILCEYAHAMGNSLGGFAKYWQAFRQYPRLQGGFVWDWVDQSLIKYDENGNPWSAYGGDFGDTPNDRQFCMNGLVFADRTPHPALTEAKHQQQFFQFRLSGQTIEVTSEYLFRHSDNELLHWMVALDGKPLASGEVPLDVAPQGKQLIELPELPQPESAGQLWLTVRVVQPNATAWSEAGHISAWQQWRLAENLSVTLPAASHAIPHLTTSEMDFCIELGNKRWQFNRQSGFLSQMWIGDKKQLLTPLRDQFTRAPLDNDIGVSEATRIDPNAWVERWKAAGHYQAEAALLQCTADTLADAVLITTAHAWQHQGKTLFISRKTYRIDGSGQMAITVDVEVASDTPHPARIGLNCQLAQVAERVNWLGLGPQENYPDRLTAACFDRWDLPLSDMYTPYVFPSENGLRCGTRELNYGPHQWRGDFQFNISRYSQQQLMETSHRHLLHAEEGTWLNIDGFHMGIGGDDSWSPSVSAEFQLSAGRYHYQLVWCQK
structure (smiles),measurement,setting,value
COc1ccc(-n2cc(C(=O)c3ccccc3O)cn2)cc1,AC50,HEK293,2.43 µM (active)
same,AC50,[1],> 52 µM (inactive)
same,AC50,[2],8.21 µM (active)
same,AC50,[3],10.7 µM (active)
O=C(COc1ccc(Cl)cc1)N1CCN(S(=O)(=O)c2ccc(Cl)cc2)CC1,IC50,Beta-galactosidase,> 80 µM (inactive)
O=C(c1ccco1)N1CCN(C(=O)c2cc3c(s2)-c2ccccc2OC3)CC1,IC50,Beta-galactosidase,> 80 µM (inactive)
N#CC(=C1CCCC1)c1nc(-c2ccc(Cl)cc2)cs1,IC50,Beta-galactosidase,> 80 µM (inactive)
Cc1[nH][nH]c(=O)c1C(c1ccc(-c2ccc(Cl)c(Cl)c2)o1)c1c(C)[nH][nH]c1=O,AC50,[4],0.281 µM (active)
same,EC50,Protein RecA,0.305 µM (active)
same,IC50,[5],18.8 µM (active)
same,IC50,[6],8.73 µM (active)
COc1ccc(-c2ccc(C(c3c(C)n[nH]c3O)c3c(C)n[nH]c3O)o2)c([N+](=O)[O-])c1,IC50,[5],28.7 µM (active)
same,IC50,[6],15.6 µM (active)
same,AC50,[7],> 20 µM (inactive)
COc1ccccc1N1CCN(C(=O)c2ccc3[nH]c(C)c(C)c3c2)CC1,EC50,[8],3.53 µM (active)
same,EC50,BJ [9],2.61 µM (active)
same,EC50,[10],2.14 µM (active)
same,EC50,[11],0.19 µM (active)
same,EC50,BJ [12],68.5 µM (active)
same,EC50,BJ [13],2.22 µM (inconclusive)
same,EC50,[14],2.4 µM (active)
same,IC50,Beta-galactosidase,> 80 µM (inactive)
